Patent publication US8623392B2, “Allergen inactivating agent” (priority 2007, dated 2014)
Entries after “also recorded” stand apart in the source; their conditions may differ.

Tests used:
[1] = molecular target: T1, freeze-dried Cry j1 (Cryptomeria japonica, UniProt P18632); experiment: ELISA of freeze-dried Cry j1 after exposure to chlorine dioxide gas in 100 L-Tedlar bag; format: biochemical, Japanese cedar; details: 24 hours
T1 construct: purchased Hayashibara Biochemical Labs., Inc
Experimental: (§1) The purified Cry j1 which had been freeze-dried was reacted with chlorine dioxide gas having an average concentration of 0.08 ppm for 24 hours, and measurement was made using ELISA. As a result, 0.08 ppm of chlorine dioxide gas reduced the antigenicity of Cry j1, as compared with the case of air as a control. […] The details will be described below.
In order to examine effect of the chlorine dioxide gas on the freeze-dried Cry j1, […] of the purified Cry j1 adjusted with PBS to the concentration of 10 μg/ml was placed in a […], frozen at −30° C., and freeze-dried overnight using a suction desiccator.
The humidity was controlled using agar, and the generated chlorine dioxide solution was introduced using a syringe into a 100 L-Tedlar bag, so that the concentration therein becomes 0.1 ppm, and air inside the bag was agitated using a crisscross rotor wherein outer diameter of 60 mm×height of 17 mm. Likewise, a bag into which distilled water was introduced was used as a control. The bag was left in an environment of 24° C., and the chlorine dioxide gas concentration inside the bag was measured using a chlorine dioxide gas measuring instrument (Model 4330-SP, Interscan Corporation; measurement range 0 to 1,000 ppb), and when the value was below 0.1 ppm, the generated chlorine dioxide solution was further added to make adjustment. […]

[2] = molecular target: T2, freeze-dried Der fII (Dermatophagoides farinae, UniProt Q00855); experiment: ELISA of freeze-dried Der fII after exposure to chlorine dioxide gas in 100 L-Tedlar bag; format: biochemical, mite; details: 24 hours
T2 sequence (Q00855 18-146): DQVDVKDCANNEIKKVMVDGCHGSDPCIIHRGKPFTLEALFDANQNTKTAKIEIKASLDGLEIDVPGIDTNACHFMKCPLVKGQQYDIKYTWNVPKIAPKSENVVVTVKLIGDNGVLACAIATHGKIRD
Experimental: as §1, with “Der fII” for “Cry j1”, “a” for “an average”, “0.1” for “0.08”, “Der fII,” for “Cry j1,”
In order to examine effect of the chlorine dioxide gas on the freeze-dried Der fII, 10 μl of the purified Der fII adjusted with PBS to the concentration of 10 μg/ml was placed in a 0.2-mL tube, frozen at −30° C., and freeze-dried overnight using a suction desiccator.
The humidity was controlled by a saturated salt method. Inside a Futon bag, a Tupperware containing salt or water therein was placed so as to obtain a target humidity, and next day, inside the bag, a 100 L-Tedlar bag containing the freeze-dried Der fII and a hygrometer was placed. A Tedlar bag into which chlorine dioxide was introduced was light-shielded with aluminum foil. […] The bag was left in an environment of 24° C., and the chlorine dioxide gas concentration inside bag was measured using a chlorine dioxide detector tube (No. 23M having a measurement range of 0.1 to 10 ppm, No. 23L having a measurement range of 0.025 to 1.2 ppm, GASTEC Corporation), and when the value was below 0.1 ppm, the generated chlorine dioxide gas was further added to make adjustment. […]

T1 sequence (P18632 22-374): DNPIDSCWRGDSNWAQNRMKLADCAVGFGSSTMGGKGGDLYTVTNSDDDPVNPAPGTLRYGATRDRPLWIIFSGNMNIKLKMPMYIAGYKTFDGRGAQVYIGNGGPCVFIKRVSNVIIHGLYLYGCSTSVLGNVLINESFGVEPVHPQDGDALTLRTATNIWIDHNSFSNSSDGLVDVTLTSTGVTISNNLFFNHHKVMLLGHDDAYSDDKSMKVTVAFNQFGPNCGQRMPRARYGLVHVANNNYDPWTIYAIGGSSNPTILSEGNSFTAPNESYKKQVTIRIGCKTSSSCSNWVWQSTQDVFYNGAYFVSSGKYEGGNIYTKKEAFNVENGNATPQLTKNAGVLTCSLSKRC

[O][Cl+][O-] [chlorine dioxide gas, chlorine dioxide]
antigenicity of freeze-dried Cry j1 at higher relative humidity ([1]; chlorine dioxide gas 0.1 ppm (average 0.08 ppm), humidity increased): further reduced; also recorded: reduced to a larger degree | antigenicity of freeze-dried Cry j1 ([1]; chlorine dioxide gas 0.1 ppm set, 0.08 ppm (80 ppb) on average, 24° C., compared with air control): remarkably reduced | antigenicity of freeze-dried Der fII ([2]; chlorine dioxide gas 0.1 ppm (0.09 ppm on average), 24° C., compared with air control): remarkably reduced | antigenicity of freeze-dried Der fII at higher relative humidity ([2]; chlorine dioxide gas 0.1 ppm, humidity increased): reduced to a larger degree; also recorded: further reduced
